Each structure is given as a SMILES string. Where a name gives a salt, the structure may show the parent alone.

T1 sequence (O75460 547-977 D688N): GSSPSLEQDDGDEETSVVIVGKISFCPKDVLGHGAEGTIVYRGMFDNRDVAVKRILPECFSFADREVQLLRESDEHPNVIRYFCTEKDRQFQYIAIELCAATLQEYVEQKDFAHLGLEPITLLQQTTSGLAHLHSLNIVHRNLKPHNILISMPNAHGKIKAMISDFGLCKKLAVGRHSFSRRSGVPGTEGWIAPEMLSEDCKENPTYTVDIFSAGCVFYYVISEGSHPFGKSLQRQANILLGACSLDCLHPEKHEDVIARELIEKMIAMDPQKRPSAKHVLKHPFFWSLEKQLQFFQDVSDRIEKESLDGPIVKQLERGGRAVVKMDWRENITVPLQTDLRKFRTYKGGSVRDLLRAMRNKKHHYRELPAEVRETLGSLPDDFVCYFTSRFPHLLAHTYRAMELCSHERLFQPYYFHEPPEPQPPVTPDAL

The test concerns the target T1, IRE1α (Homo sapiens, UniProt O75460, D688N).
T1 construct: containing the kinase and RNase domains (KR, AA G547-L977, D688N); made in house; host or cells: Sf9 insect cells
The test is described as follows: IRE1α TR-FRET competition binding assay (HTRF). The note with it: His-tagged IRE1α kinase dead construct (KR, AA G547-L977, D688N); Alexa fluor 647-labeled ATP competitive probe 2 nM; read-out: IRE1α (alpha) HTRF (IC50). Here is the method:
To determine the affinity of compound binding to the kinase domain of IRE1α, a time-resolved fluorescence resonance energy transfer (TR-FRET) competition assay was used.
A His-tagged IRE1α kinase dead construct containing the kinase and RNase domains (KR, AA G547-L977, D688N) was expressed in Sf9 insect cells. The purified protein (final concentration 0.25 nM) was pre-incubated with anti-His Europium labeled antibody (Life Technologies PV5596, final concentration 2 nM) for one hour at 4° C. in TR-FRET Assay Buffer (50 mM HEPES, pH 7.5, 10 mM MgCl2, 0.083 mM Brij 35, 1 mM DTT, and 0.1% bovine gamma globulin) prior to addition to test compounds. An Alexa fluor 647-labeled probe based on an ATP competitive inhibitor was added to a final concentration of 2 nM. Reactions were carried out for one hour at room temperature in a final volume of 20 μL in 384 well white ProxiPlates (Perkin Elmer 6008289). Binding of the probe to the IRE1α protein was detected in an Envision instrument (PerkinElmer) equipped with a TRF laser option and a LANCE/Delfia Dual/Bias D400/D630 mirror (Ex 347 nm, 1st Em 665 nm, 2nd Em 615 nm).
Consider `O=S(=O)(Cc1ccccc1)Nc1ccc(F)c(-c2ccc3nc(N[C@H]4CCCNC4)ncc3c2)c1F` [Compound 1004, (S)—N-(2,4-Difluoro-3-(2-(piperidin-3-ylamino)quinazolin-6-yl)phenyl)-1-phenylmethanesulfonamide], for which the IC50 is 150 nM.
With `O=S(=O)(Cc1ccccc1)Nc1ccc(Cl)c(-c2ccc3nc(N[C@H]4CCCNC4)ncc3c2)c1F` [Compound 1008, (S)—N-(4-Chloro-2-fluoro-3-(2-(piperidin-3-ylamino)quinazolin-6-yl)phenyl)-1-phenylmethanesulfonamide], the IC50 is 30 nM.
Turning to `CCc1cc(-c2ccc(NS(=O)(=O)CCC(F)(F)F)c(F)c2)cc2cnc(N[C@H]3CC[C@H](N(C)C)CC3)nc12` [Compound 1018, N-(4-(2-(((1,4-trans)-4-(Dimethylamino)cyclohexyl)amino)-8-ethylquinazolin-6-yl)-2-fluorophenyl)-3,3,3-trifluoropropane-1-sulfonamide], the IC50 turned out to be 0.25 nM.
For `O=S(=O)(Cc1ccccc1)Nc1ccc(-c2ccc3nc(N[C@H]4CCCNC4)ncc3c2)cc1F` [Compound 1010, (S)—N-(2-Fluoro-4-(2-(piperidin-3-ylamino)quinazolin-6-yl)phenyl)-1-phenylmethanesulfonamide], the IC50 turned out to be 11 nM.
For `O=S(=O)(Cc1ccccc1)Nc1ccc(-c2cc3cnc(N[C@H]4CCCNC4)nc3cc2F)c(F)c1F` [Compound 1015, (S)—N-(2,3-Difluoro-4-(7-fluoro-2-(piperidin-3-ylamino)quinazolin-6-yl)phenyl)-1-phenylmethanesulfonamide], the IC50 amounted to 3.1 nM.
As to `Cc1cc(NS(=O)(=O)Cc2ccccc2)c(F)c(F)c1-c1ccc2nc(N[C@H]3CCCNC3)ncc2c1` [Compound 1009, (S)—N-(2,3-Difluoro-5-methyl-4-(2-(piperidin-3-ylamino)quinazolin-6-yl)phenyl)-1-phenylmethanesulfonamide], the 50% inhibitory concentration (IC50) was found to be 4.9 nM.
Under `O=S(=O)(Cc1ccccc1)Nc1ccc(-c2ccc3nc(N[C@H]4CCCNC4)ncc3c2)c(F)c1F` [Compound 1001, (S)—N-(2,3-Difluoro-4-(2-(piperidin-3-ylamino)quinazolin-6-yl)phenyl)-1-phenylmethanesulfonamide] stands 0.57 nM; under `CCc1cc(-c2ccc(NS(=O)(=O)Cc3ccccc3)c(F)c2)cc2cnc(N[C@@H]3CNC[C@@H](F)C3)nc12` [Compound 1017, N-(4-(8-Ethyl-2-(((3S,5S)-5-fluoropiperidin-3-yl)amino)quinazolin-6-yl)-2-fluorophenyl)-1-phenylmethanesulfonamide], 0.18 nM.
Turning to `O=S(=O)(Cc1ccccc1)Nc1ccc(-c2ccc3nc(N[C@H]4CCCNC4)ncc3c2F)c(F)c1F` [Compound 1012, (S)—N-(2,3-Difluoro-4-(5-fluoro-2-(piperidin-3-ylamino)quinazolin-6-yl)phenyl)-1-phenylmethanesulfonamide], the half-maximal inhibitory concentration (IC50) worked out at 15 nM.
Consider `O=S(=O)(Cc1ccccc1)Nc1cc(F)c(-c2ccc3nc(N[C@H]4CCCNC4)ncc3c2)c(F)c1F` [Compound 1014, (S)-1-Phenyl-N-(2,3,5-trifluoro-4-(2-(piperidin-3-ylamino)quinazolin-6-yl)phenyl)methanesulfonamide hydrochloride], for which the IC50 came out at 2.1 nM.
Take `CCc1cc(-c2ccc(NS(=O)(=O)Cc3ccccc3)cc2F)cc2cnc(N[C@@H]3CNC[C@@H](F)C3)nc12` [Compound 1016, N-(4-(8-Ethyl-2-(((3S,5S)-5-fluoropiperidin-3-yl)amino)quinazolin-6-yl)-3-fluorophenyl)-1-phenylmethanesulfonamide Formate]: the half-maximal inhibitory concentration (IC50) came to 0.46 nM.
`O=S(=O)(Cc1ccccc1)Nc1ccc(F)c(-c2ccc3nc(N[C@H]4CCCNC4)ncc3c2)c1` [Compound 1005, (S)—N-(4-Fluoro-3-(2-(piperidin-3-ylamino)quinazolin-6-yl)phenyl)-1-phenylmethanesulfonamide]: the IC50 was determined as 79 nM.
As to `CCC(F)(F)CS(=O)(=O)Nc1ccc(-c2ccc3nc(N[C@H]4CCCNC4)ncc3c2)c(F)c1F` [Compound 1007, (S)—N-(2,3-Difluoro-4-(2-(piperidin-3-ylamino)quinazolin-6-yl)phenyl)-2,2-difluorobutane-1-sulfonamide], the half-maximal inhibitory concentration (IC50) is 2.9 nM.
Turning to `O=S(=O)(CCC(F)(F)F)Nc1ccc(-c2ccc3nc(N[C@H]4CCCNC4)ncc3c2)c(F)c1F` [Compound 1002, (S)—N-(2,3-Difluoro-4-(2-(piperidin-3-ylamino)quinazolin-6-yl)phenyl)-3,3,3-trifluoropropane-1-sulfonamide], the IC50 is 7.6 nM.
On to `O=S(=O)(Cc1ccccc1)Nc1c(F)cc(-c2ccc3nc(N[C@H]4CCCNC4)ncc3c2)c(F)c1F` [Compound 1003, (S)-1-Phenyl-N-(2,3,6-trifluoro-4-(2-(piperidin-3-ylamino)quinazolin-6-yl)phenyl)methanesulfonamide], for which the half-inhibitory concentration (IC50) was determined as 0.65 nM.
Turning to `O=S(=O)(Cc1ccccc1)Nc1cccc(-c2ccc3nc(N[C@H]4CCCNC4)ncc3c2)c1F` [Compound 1006, (S)—N-(2-Fluoro-3-(2-(piperidin-3-ylamino)quinazolin-6-yl)phenyl)-1-phenylmethanesulfonamide], the half-inhibitory concentration (IC50) is 100 nM.
On to `O=S(=O)(Cc1ccccc1)Nc1c(F)cc(-c2ccc3nc(N[C@@H]4CNC[C@@H](F)C4)ncc3c2)cc1F` [Compound 1013, N-(2,6-Difluoro-4-(2-(((3S,5S)-5-fluoropiperidin-3-yl)amino)quinazolin-6-yl)phenyl)-1-phenylmethanesulfonamide], for which the half-inhibitory concentration (IC50) stood at 0.51 nM.
On to `O=S(=O)(Cc1ccccc1)Nc1c(F)cc(-c2ccc3nc(N[C@H]4CCCNC4)ncc3c2)cc1F` [Compound 1011, (S)—N-(2,6-Difluoro-4-(2-(piperidin-3-ylamino)quinazolin-6-yl)phenyl)-1-phenylmethanesulfonamide], for which the IC50 is 0.53 nM.

The record behind these values is patent publication US20220249487A1, “QUINAZOLINYL COMPOUNDS AND METHODS OF USE” (Genentech, Inc., priority 2019, published 2022).
